Laboratory results taken from patent US7022711B2, “2-(4-Pyridyl)amino-6-dialkoxyphenyl-pyrido[2,3-d]pyrimidin-7-ones” (Warner-Lambert Company, priority 2000, dated 2006).

Assays:
[1] = target: T1, FGFR-1 (Homo sapiens, UniProt P11362); assay: Kinase inhibition assay (DELFIA), FGFr; type: biochemical; settings: 40 μM ATP, kinase domain 20 nM
T1 construct: The kinase domains from FGFR-1, VEGFR-2, Lck, and PDGF were purified from baculoviral vectors expression systems; made in house
Method: (§1) The inhibition activity of the compounds in Examples 8, 9, 10, 11, and 12 and Reference Compounds A and B were evaluated using the Dissociated Enhanced Lanthanide Fluoroimmuno Assay (DELFIA) (Frank Loganzo and Carolyn Hardy. A sensitive, time-resolved fluorometric assay for the detection of inhibitors of phosphotyrosine kinases. American Biotechnology Laboratory, December 1998). DELFIA plates (EG&G Wallac, Gaithersburg, Md.) were coated overnight with Poly Glu Tyr (4:1) (Sigma, St. Louis, Mo.) at room temperature, washed (DELFIA wash reagent, EG&G Wallac), and spotted with 1 μL inhibitor dilution or DMSO carrier control per well. In some cases, kinase was autophosphorylated prior to analysis by incubating 45 minutes at 4° C. in the presence of 4 mM ATP and 25 mM MgCl2. A typical 100 μL kinase assay reaction contained 20 mM Tris (pH 7.5), 20 mM MgCl2, 50 mM NaCl, 5 mM DTT, and protease inhibitors (Mini EDTA-free protease inhibitor cocktail tablets, Boehringer Mannheim, Indianapolis, Ind.), 40 μM ATP, and an appropriate concentration of inhibitor. The reaction was allowed to continue for 30 minutes at room temperature. Plates were washed, blocked 30 minutes at room temperature (0.5% bovine serum albumin in DELFIA Assay Buffer, EG&G Wallac), and washed. One hundred microliter europium-conjugated antiphosphotyrosine antibody in DELFIA assay buffer was added to each well. Plates were incubated for 1 hour and decanted. One hundred microliter DELFIA enhancement solution (EG&G Wallac) was added and time-resolved fluorescence of the reactions determined using a VICTOR2 1420 multilable counter (EG&G Wallac). Compounds were tested from 10 through 0.0001 μM. c-Src was (Upstate Biotechnology, Lake Placid, N.Y.) was used at 3 units per reaction. The kinase domains from FGFR-1, VEGFR-2, Lck, and PDGF were purified from baculoviral vectors expression systems and were used in the assays at 20 nM.

[2] = target: T2, Lck (Homo sapiens, UniProt P06239); assay: Kinase inhibition assay (DELFIA), Lck; type: biochemical; settings: 40 μM ATP, kinase domain 20 nM
T2 construct: The kinase domains from FGFR-1, VEGFR-2, Lck, and PDGF were purified from baculoviral vectors expression systems; made in house
T2 sequence (P06239 245-498 limits assumed, species assumed): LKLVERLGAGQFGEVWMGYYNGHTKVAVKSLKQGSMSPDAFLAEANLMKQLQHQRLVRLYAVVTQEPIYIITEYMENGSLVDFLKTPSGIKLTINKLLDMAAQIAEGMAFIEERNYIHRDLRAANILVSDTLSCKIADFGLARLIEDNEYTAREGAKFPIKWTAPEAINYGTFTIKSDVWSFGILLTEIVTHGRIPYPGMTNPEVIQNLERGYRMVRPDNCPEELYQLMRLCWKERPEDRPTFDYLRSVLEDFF
Method: as §1

[3] = target: T3, PDGFR (Mus musculus, UniProt P05622); assay: Kinase inhibition assay (DELFIA), PDGF; type: biochemical; settings: 40 μM ATP, kinase domain 20 nM
T3 construct: The kinase domains from FGFR-1, VEGFR-2, Lck, and PDGF were purified from baculoviral vectors expression systems and were used in the assays at 20 nM
T3 sequence (P05622 553-1098): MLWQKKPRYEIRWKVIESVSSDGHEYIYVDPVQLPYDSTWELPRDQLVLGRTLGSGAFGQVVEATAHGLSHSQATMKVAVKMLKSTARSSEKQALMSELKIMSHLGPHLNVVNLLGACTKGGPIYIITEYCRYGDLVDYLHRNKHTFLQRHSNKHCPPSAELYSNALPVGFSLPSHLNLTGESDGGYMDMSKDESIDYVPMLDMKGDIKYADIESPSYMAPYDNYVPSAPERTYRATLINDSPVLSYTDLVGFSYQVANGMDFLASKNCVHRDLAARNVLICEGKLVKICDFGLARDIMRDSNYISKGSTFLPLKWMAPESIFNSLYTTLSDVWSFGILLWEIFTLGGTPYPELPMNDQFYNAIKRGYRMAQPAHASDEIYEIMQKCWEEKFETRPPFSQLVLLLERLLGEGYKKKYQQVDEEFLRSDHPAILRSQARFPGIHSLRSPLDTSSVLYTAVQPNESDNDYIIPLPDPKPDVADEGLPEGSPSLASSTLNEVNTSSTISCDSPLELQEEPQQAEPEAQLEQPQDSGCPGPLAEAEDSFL
Method: as §1, with “Plates were washed, blocked 30 minutes at room temperature (0.5% bovine serum albumin in DELFIA Assay Buffer, EG&G Wallac), and washed. One hundred microliter europium-conjugated antiphosphotyrosine antibody in DELFIA assay buffer was added to each well. Plates were incubated for 1 hour and decanted.” left out, “Compounds were tested from 10 through 0.0001 μM. c-Src was (Upstate Biotechnology, Lake Placid, N.Y.) was used at 3 units per reaction. The kinase domains from FGFR-1, VEGFR-2, Lck, and PDGF were purified from baculoviral vectors expression systems and were used in the assays at 20 nM.” left out

[4] = tested on: Mammary Adenocarcinoma M16/C; assay: Antitumor activity in vivo, M16/C mammary tumor model; settings: for CRs, complete regression / T-C (Days), tumor growth delay to 750 mg / T/C (%), median treated tumor mass/median control tumor mass / NSD, nonspecific deaths/total in treatment group: D7-15; for T/C (%), median treated tumor mass/median control tumor mass: 3 days after the end of therapy
Method: The anticancer efficacy of the compound of Example 8 was evaluated using a murine mammary […] tumor model, M16/C. This highly vascularized tumor is very aggressive with a doubling time of 1.5 days. Tumor fragments were implanted by trocar fragment in the right axilla of C3H mice on Day 0. The efficacy of treatment was assessed both in an advanced stage model (test compound treatment for nine consecutive days after tumors had reached 100 mg). The compound in Example 8 was dosed once a day over the treatment period by oral gavage in 0.05 M sodium lactate buffer, pH 4. Animals were allowed to continue off therapy until the tumors reached the evaluable size (750 mg). Animal weights were determined throughout the study to provide an estimate of test compound toxicity. A mean weight loss >10% (3–4 g) for any treatment group is an indication of host toxicity. Anticancer activity was evaluated using two methods. The first is %T/C where T=median mass of treated tumors 3 days after the end of therapy, and C=median mass of the control group at that same time point. The highest degree of antitumor activity using this assessment occurs when T=0, and %T/C=0%. […] The second method uses tumor growth delay (T−C), where T=the days for the median treated tumor to reach an evaluable size (750 mg), and C=days for control tumors to reach that same size.

[5] = tested on: Human umbilical vein endothelial cells (HUVECs); assay: Serum stimulated HUVEC cell proliferation (Sulphorhodamine B); type: cell-based
Method: Human umbilical vein endothelial cells (HUVECs) (Clonetics, Palo Alto, Calif.) were seeded at 2000 cells per well in growth medium containing 2% serum (EGM, Clonetics) and allowed to attach overnight (37° C., 5% CO2, 100% humidity). C6 rat glioma cells (ATCC) were seeded at 600 cells per well and incubated in F10 medium (GIBCO, Gaithersburg, Md.) supplemented with 15% horse serum, 2.5% fetal bovine serum, and 1 mM glutamine. A90 human ovarian cells (Dr. Kent Crickard, SUNY/AB Medical School) were seeded at 600 cells per well in RPMI1640 (GIBCO) plus 10% fetal bovine serum. Plates were incubated overnight (37° C., 5% CO2, 100% humidity) to allow the cells to attach. Test compound dilutions were added to the appropriate wells, and the incubation was continued for 4 additional days. Monolayers were fixed in 10% trichloroacetic acid (30 minutes at 4° C.), washed with distilled water, and stained with Sulphorhodamine B (0.075% in 1% acetic acid) (Sigma). Plates were washed in 1% acetic acid, and the bound dye was solubilized in 100 μL unbuffered Tris base. Absorbance was measured at 540 nm using a reference filter wavelength of 630 nm. Inhibitor potency (IC50) versus cellular proliferation was determined, and endothelial cell selectivity was assessed by comparing the inhibition of HUVEC proliferation to A90 and C6 tumor cell proliferation (Table 3).

[6] = target: T4, c-Src (Homo sapiens, UniProt P12931); assay: Kinase inhibition assay (DELFIA), c-Src; type: biochemical; settings: 40 μM ATP, c-Src 3 units per reaction
T4 construct: purchased Upstate Biotechnology, Lake Placid, N.Y
Method: as §1

T1 sequence (P11362 478-767 limits assumed, species assumed): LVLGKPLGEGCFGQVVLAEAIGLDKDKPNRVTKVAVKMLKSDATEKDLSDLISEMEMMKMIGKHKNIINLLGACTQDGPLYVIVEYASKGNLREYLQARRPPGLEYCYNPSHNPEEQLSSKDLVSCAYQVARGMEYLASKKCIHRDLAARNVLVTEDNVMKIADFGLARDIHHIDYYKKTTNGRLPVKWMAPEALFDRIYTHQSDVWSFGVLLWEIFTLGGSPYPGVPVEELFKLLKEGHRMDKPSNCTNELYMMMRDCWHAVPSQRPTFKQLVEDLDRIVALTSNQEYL

## 6-(3,5-Dimethoxy-phenyl)-8-ethyl-2-(pyridin-4-ylamino)-8H-pyrido[2,3-d]pyrimidin-7-one [Example 8]
[1]
  IC50: 0.009 µM
[2]
  Ki: 1.79 µM
[3]
  IC50: 2.54 µM
[4]; 5 mg/kg, oral
  CRs, complete regression: 0/6
  T-C (Days), tumor growth delay to 750 mg: 4.3 days
  T/C (%), median treated tumor mass/median control tumor mass: 39%
[4]; 10 mg/kg, oral
  NSD, nonspecific deaths/total in treatment group: 0/6
  T-C (Days), tumor growth delay to 750 mg: 7.9 days
  T/C (%), median treated tumor mass/median control tumor mass: 15%
[4]; 20 mg/kg, oral
  CRs, complete regression: 4/6
  NSD, nonspecific deaths/total in treatment group: 0/6
  T-C (Days), tumor growth delay to 750 mg: 10.7 days
  T/C (%), median treated tumor mass/median control tumor mass: 0%
[4]; 40 mg/kg, oral
  CRs, complete regression: 6/6
  NSD, nonspecific deaths/total in treatment group: 0/6
  T-C (Days), tumor growth delay to 750 mg: 12.4 days
  T/C (%), median treated tumor mass/median control tumor mass: 0%
[4]; 40 and 20 mg/kg dose levels
  regression of tumors below the level of palpation: complete regressions
  tumor growth delay (T−C) relative to duration of therapy: greater than the duration of therapy
[4]; all four doses tested
  anticancer activity (%T/C): meaningful anticancer activity
[4]; all four doses tested, oral, nine consecutive days
  tolerability: well-tolerated
[5]; 2% serum growth medium, 4 days with compound
  IC50: 0.009 µM
[5]; HUVEC compared to A90 and C6 tumor cell proliferation
  selectivity for serum-stimulated endothelial cell proliferation: selective inhibitors
[6]
  IC50: 36.5 µM
